Experimental data as given in the supplement of paper PMC10307832.

Columns and labels:
Test in all cases: relative viability (nuclei count vs DMSO), 5 days (fraction); higher = more cells survive
Imatinib + Navitoclax = compound: Cc1ccc(NC(=O)c2ccc(CN3CCN(C)CC3)cc2)cc1Nc1nccc(-c2cccnc2)n1 [Imatinib] + CC1(C)CCC(c2ccc(Cl)cc2)=C(CN2CCN(c3ccc(C(=O)NS(=O)(=O)c4ccc(N[C@H](CCN5CCOCC5)CSc5ccccc5)c(S(=O)(=O)C(F)(F)F)c4)cc3)CC2)C1 [Navitoclax] (partner 0.5 µM)
Procedure, shortened: (§1)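 Nuclei were stained with Hoechst during a one-step fixation (final 0.05% Triton X-100, 1% formaldehyde, 1 ug/ml Hoechst) carried out 5 days after dosing, then counted on 4× images. The cells, lung cancer lines in 1536-well plates, had been dosed by pin tool the day after seeding with one drug alone or a fixed anchor-drug dose plus five library-drug doses (not always all listed) in √10 steps. Relative viability is the nuclei count in treated wells divided by that in vehicle wells, and each value is the median of duplicate plates.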

Imatinib + Tozasertib = compound: Cc1ccc(NC(=O)c2ccc(CN3CCN(C)CC3)cc2)cc1Nc1nccc(-c2cccnc2)n1 [Imatinib] + Cc1cc(Nc2cc(N3CCN(C)CC3)nc(Sc3ccc(NC(=O)C4CC4)cc3)n2)n[nH]1 [Tozasertib] (partner 0.1 µM)
Procedure, shortened: as §1

Imatinib + Palbociclib = compound: Cc1ccc(NC(=O)c2ccc(CN3CCN(C)CC3)cc2)cc1Nc1nccc(-c2cccnc2)n1 [Imatinib] + CC(=O)c1c(C)c2cnc(Nc3ccc(N4CCNCC4)cn3)nc2n(C2CCCC2)c1=O [Palbociclib] (partner 0.5 µM)
Procedure, shortened: as §1

Imatinib + Vorinostat = compound: Cc1ccc(NC(=O)c2ccc(CN3CCN(C)CC3)cc2)cc1Nc1nccc(-c2cccnc2)n1 [Imatinib] + O=C(CCCCCCC(=O)Nc1ccccc1)NO [Vorinostat] (partner 1 µM)
Procedure, shortened: as §1

EBC-1
relative viability (Imatinib + Navitoclax; first compound 0.02 µM): 0.398
relative viability (Imatinib + Navitoclax; first compound 0.06325 µM): 0.399
relative viability (Imatinib + Navitoclax; first compound 0.2 µM): 0.382
relative viability (Imatinib + Navitoclax; first compound 0.6325 µM): 0.327
relative viability (Imatinib + Navitoclax; first compound 2 µM): 0.379

NCI-H727
relative viability (Imatinib + Tozasertib; first compound 0.02 µM): 0.59
relative viability (Imatinib + Tozasertib; first compound 0.06325 µM): 0.59
relative viability (Imatinib + Tozasertib; first compound 0.2 µM): 0.518
relative viability (Imatinib + Tozasertib; first compound 0.6325 µM): 0.543
relative viability (Imatinib + Tozasertib; first compound 2 µM): 0.509
relative viability (Imatinib + Navitoclax; first compound 0.02 µM): 0.324
relative viability (Imatinib + Navitoclax; first compound 0.06325 µM): 0.398
relative viability (Imatinib + Navitoclax; first compound 0.2 µM): 0.4
relative viability (Imatinib + Navitoclax; first compound 0.6325 µM): 0.412
relative viability (Imatinib + Navitoclax; first compound 2 µM): 0.417
relative viability (Imatinib + Palbociclib; first compound 0.02 µM): 0.577
relative viability (Imatinib + Palbociclib; first compound 0.2 µM): 0.599
relative viability (Imatinib + Palbociclib; first compound 0.6325 µM): 0.569
relative viability (Imatinib + Palbociclib; first compound 2 µM): 0.601
relative viability (Imatinib + Vorinostat; first compound 0.02 µM): 1.28
relative viability (Imatinib + Vorinostat; first compound 0.6325 µM): 1.14
relative viability (Imatinib + Vorinostat; first compound 2 µM): 1.34

Calu-6
relative viability (Imatinib + Navitoclax; first compound 0.02 µM): 0.976
relative viability (Imatinib + Navitoclax; first compound 0.06325 µM): 0.804
relative viability (Imatinib + Navitoclax; first compound 0.2 µM): 0.777
relative viability (Imatinib + Navitoclax; first compound 0.6325 µM): 0.85
relative viability (Imatinib + Navitoclax; first compound 2 µM): 0.814

LOU-NH91
relative viability (Imatinib + Tozasertib; first compound 0.02 µM): 0.636
relative viability (Imatinib + Tozasertib; first compound 0.06325 µM): 0.833
relative viability (Imatinib + Tozasertib; first compound 0.2 µM): 0.761
relative viability (Imatinib + Tozasertib; first compound 0.6325 µM): 0.596
relative viability (Imatinib + Tozasertib; first compound 2 µM): 0.667
relative viability (Imatinib + Navitoclax; first compound 0.02 µM): 0.76
relative viability (Imatinib + Navitoclax; first compound 0.2 µM): 0.654
relative viability (Imatinib + Navitoclax; first compound 0.6325 µM): 0.569
relative viability (Imatinib + Navitoclax; first compound 2 µM): 0.613
relative viability (Imatinib + Palbociclib; first compound 0.02 µM): 0.524
relative viability (Imatinib + Palbociclib; first compound 0.06325 µM): 0.543
relative viability (Imatinib + Palbociclib; first compound 0.2 µM): 0.547
relative viability (Imatinib + Palbociclib; first compound 0.6325 µM): 0.572
relative viability (Imatinib + Palbociclib; first compound 2 µM): 0.496
relative viability (Imatinib + Vorinostat; first compound 0.02 µM): 0.948
relative viability (Imatinib + Vorinostat; first compound 0.06325 µM): 1.08
relative viability (Imatinib + Vorinostat; first compound 0.2 µM): 0.938
relative viability (Imatinib + Vorinostat; first compound 0.6325 µM): 0.885
relative viability (Imatinib + Vorinostat; first compound 2 µM): 0.895

NCI-H1993
relative viability (Imatinib + Tozasertib; first compound 0.02 µM): 0.636
relative viability (Imatinib + Tozasertib; first compound 0.06325 µM): 0.632
relative viability (Imatinib + Tozasertib; first compound 0.2 µM): 0.591
relative viability (Imatinib + Tozasertib; first compound 0.6325 µM): 0.581
relative viability (Imatinib + Tozasertib; first compound 2 µM): 0.588
relative viability (Imatinib + Navitoclax; first compound 0.06325 µM): 1
relative viability (Imatinib + Navitoclax; first compound 0.2 µM): 0.953
relative viability (Imatinib + Navitoclax; first compound 0.6325 µM): 0.851
relative viability (Imatinib + Navitoclax; first compound 2 µM): 0.776
relative viability (Imatinib + Palbociclib; first compound 0.02 µM): 0.684
relative viability (Imatinib + Palbociclib; first compound 0.06325 µM): 0.677
relative viability (Imatinib + Palbociclib; first compound 0.2 µM): 0.674
relative viability (Imatinib + Palbociclib; first compound 0.6325 µM): 0.723
relative viability (Imatinib + Palbociclib; first compound 2 µM): 0.699
relative viability (Imatinib + Vorinostat; first compound 0.02 µM): 0.608
relative viability (Imatinib + Vorinostat; first compound 0.06325 µM): 0.581
relative viability (Imatinib + Vorinostat; first compound 0.2 µM): 0.737
relative viability (Imatinib + Vorinostat; first compound 0.6325 µM): 0.688
relative viability (Imatinib + Vorinostat; first compound 2 µM): 0.743

NCI-H322M
relative viability (Imatinib + Tozasertib; first compound 0.02 µM): 0.483
relative viability (Imatinib + Tozasertib; first compound 0.06325 µM): 0.507
relative viability (Imatinib + Tozasertib; first compound 0.2 µM): 0.491
relative viability (Imatinib + Tozasertib; first compound 0.6325 µM): 0.432
relative viability (Imatinib + Tozasertib; first compound 2 µM): 0.471
relative viability (Imatinib + Navitoclax; first compound 0.02 µM): 1.21
relative viability (Imatinib + Navitoclax; first compound 0.06325 µM): 1.26
relative viability (Imatinib + Navitoclax; first compound 0.6325 µM): 1.17
relative viability (Imatinib + Navitoclax; first compound 2 µM): 1.13
relative viability (Imatinib + Palbociclib; first compound 0.02 µM): 0.474
relative viability (Imatinib + Palbociclib; first compound 0.06325 µM): 0.518
relative viability (Imatinib + Palbociclib; first compound 0.2 µM): 0.501
relative viability (Imatinib + Palbociclib; first compound 0.6325 µM): 0.423
relative viability (Imatinib + Palbociclib; first compound 2 µM): 0.495
relative viability (Imatinib + Vorinostat; first compound 0.02 µM): 0.889
relative viability (Imatinib + Vorinostat; first compound 0.06325 µM): 0.873
relative viability (Imatinib + Vorinostat; first compound 0.2 µM): 0.928
relative viability (Imatinib + Vorinostat; first compound 0.6325 µM): 0.775
relative viability (Imatinib + Vorinostat; first compound 2 µM): 0.876

NCI-H2347
relative viability (Imatinib + Tozasertib; first compound 0.06325 µM): 0.521
relative viability (Imatinib + Tozasertib; first compound 0.2 µM): 0.499
relative viability (Imatinib + Tozasertib; first compound 0.6325 µM): 0.446
relative viability (Imatinib + Tozasertib; first compound 2 µM): 0.407
relative viability (Imatinib + Navitoclax; first compound 0.02 µM): 0.792
relative viability (Imatinib + Navitoclax; first compound 0.06325 µM): 0.675
relative viability (Imatinib + Navitoclax; first compound 0.2 µM): 0.688
relative viability (Imatinib + Navitoclax; first compound 0.6325 µM): 0.823
relative viability (Imatinib + Navitoclax; first compound 2 µM): 0.859
relative viability (Imatinib + Palbociclib; first compound 0.02 µM): 0.498
relative viability (Imatinib + Palbociclib; first compound 0.2 µM): 0.425
relative viability (Imatinib + Palbociclib; first compound 0.6325 µM): 0.424
relative viability (Imatinib + Palbociclib; first compound 2 µM): 0.405
relative viability (Imatinib + Vorinostat; first compound 0.02 µM): 0.568
relative viability (Imatinib + Vorinostat; first compound 0.2 µM): 0.585
relative viability (Imatinib + Vorinostat; first compound 0.6325 µM): 0.552
relative viability (Imatinib + Vorinostat; first compound 2 µM): 0.569

NCI-H1437
relative viability (Imatinib + Tozasertib; first compound 0.02 µM): 0.449
relative viability (Imatinib + Tozasertib; first compound 0.06325 µM): 0.453
relative viability (Imatinib + Tozasertib; first compound 0.2 µM): 0.411
relative viability (Imatinib + Tozasertib; first compound 0.6325 µM): 0.408
relative viability (Imatinib + Tozasertib; first compound 2 µM): 0.373
relative viability (Imatinib + Navitoclax; first compound 0.02 µM): 1.24
relative viability (Imatinib + Navitoclax; first compound 0.06325 µM): 1.17
relative viability (Imatinib + Navitoclax; first compound 0.2 µM): 1.34
relative viability (Imatinib + Navitoclax; first compound 0.6325 µM): 1.08
relative viability (Imatinib + Navitoclax; first compound 2 µM): 1.04
relative viability (Imatinib + Palbociclib; first compound 0.02 µM): 0.329
relative viability (Imatinib + Palbociclib; first compound 0.06325 µM): 0.288
relative viability (Imatinib + Palbociclib; first compound 0.2 µM): 0.324
relative viability (Imatinib + Palbociclib; first compound 0.6325 µM): 0.343
relative viability (Imatinib + Palbociclib; first compound 2 µM): 0.266
relative viability (Imatinib + Vorinostat; first compound 0.02 µM): 0.934
relative viability (Imatinib + Vorinostat; first compound 0.06325 µM): 0.81
relative viability (Imatinib + Vorinostat; first compound 0.2 µM): 0.883
relative viability (Imatinib + Vorinostat; first compound 0.6325 µM): 0.998
relative viability (Imatinib + Vorinostat; first compound 2 µM): 0.786

HCC-44
relative viability (Imatinib + Tozasertib; first compound 0.02 µM): 1.03
relative viability (Imatinib + Tozasertib; first compound 0.06325 µM): 0.558
relative viability (Imatinib + Tozasertib; first compound 0.2 µM): 1.01
relative viability (Imatinib + Tozasertib; first compound 0.6325 µM): 0.109
relative viability (Imatinib + Tozasertib; first compound 2 µM): 0.735
relative viability (Imatinib + Navitoclax; first compound 0.02 µM): 1.11
relative viability (Imatinib + Navitoclax; first compound 0.06325 µM): 1.05
relative viability (Imatinib + Navitoclax; first compound 0.2 µM): 1.03
relative viability (Imatinib + Navitoclax; first compound 0.6325 µM): 0.858
relative viability (Imatinib + Navitoclax; first compound 2 µM): 0.866
relative viability (Imatinib + Palbociclib; first compound 0.02 µM): 0.976
relative viability (Imatinib + Palbociclib; first compound 0.2 µM): 1.1
relative viability (Imatinib + Palbociclib; first compound 2 µM): 0.885
relative viability (Imatinib + Vorinostat; first compound 0.02 µM): 1.12
relative viability (Imatinib + Vorinostat; first compound 0.2 µM): 1.14
relative viability (Imatinib + Vorinostat; first compound 0.6325 µM): 1.14
relative viability (Imatinib + Vorinostat; first compound 2 µM): 1.04

NCI-H1651
relative viability (Imatinib + Tozasertib; first compound 0.02 µM): 0.796
relative viability (Imatinib + Tozasertib; first compound 0.06325 µM): 0.659
relative viability (Imatinib + Tozasertib; first compound 0.2 µM): 0.649
relative viability (Imatinib + Tozasertib; first compound 0.6325 µM): 0.535
relative viability (Imatinib + Tozasertib; first compound 2 µM): 0.436
relative viability (Imatinib + Navitoclax; first compound 0.02 µM): 1.34
relative viability (Imatinib + Navitoclax; first compound 0.06325 µM): 1.21
relative viability (Imatinib + Navitoclax; first compound 0.6325 µM): 1.05
relative viability (Imatinib + Navitoclax; first compound 2 µM): 1.13
relative viability (Imatinib + Palbociclib; first compound 0.02 µM): 0.478
relative viability (Imatinib + Palbociclib; first compound 0.06325 µM): 0.543
relative viability (Imatinib + Palbociclib; first compound 0.2 µM): 0.564
relative viability (Imatinib + Palbociclib; first compound 0.6325 µM): 0.492
relative viability (Imatinib + Palbociclib; first compound 2 µM): 0.543
relative viability (Imatinib + Vorinostat; first compound 0.02 µM): 0.603
relative viability (Imatinib + Vorinostat; first compound 0.06325 µM): 0.49
relative viability (Imatinib + Vorinostat; first compound 0.2 µM): 0.631
relative viability (Imatinib + Vorinostat; first compound 0.6325 µM): 0.547
relative viability (Imatinib + Vorinostat; first compound 2 µM): 0.548
